Where two headings read alike, the source gives them in different places.
What was measured:
FL5.12-Bcl-2 cells = assay: Cellular efficacy in FL5.12 cells dependent on Bcl-2; type: cell-based, murine; conditions: Mus musculus, 3% FBS
H146 cells = assay: Cellular efficacy in Bcl-XL dependent tumor cell line H146; type: cell-based; conditions: Homo sapiens, NCI-H146; 10% HS
FL5.12-Bcl-XL cells = assay: Cellular efficacy in FL5.12 cells dependent on Bcl-XL; type: cell-based, murine; conditions: Mus musculus, 3% FBS
RS4;11 cells = assay: Cellular efficacy in Bcl-2 dependent tumor cell line RS4;11; type: cell-based, human; conditions: Homo sapiens, RS4-11; 10% HS
Bcl-w = biological target: T1, Bcl-w (Homo sapiens, UniProt Q92843); assay: TR FRET competitive binding affinity, Bcl-w; conditions: read-out: Target Affinity TR FRET, Bcl-w
T1 sequence (Q92843 1-193): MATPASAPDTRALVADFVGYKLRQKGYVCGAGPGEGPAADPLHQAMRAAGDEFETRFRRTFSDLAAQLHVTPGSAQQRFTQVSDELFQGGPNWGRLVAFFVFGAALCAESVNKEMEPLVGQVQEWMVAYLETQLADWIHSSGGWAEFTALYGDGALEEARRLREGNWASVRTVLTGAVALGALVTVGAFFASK
Experimental: (§1) A comparison of the binding affinity for each of the compounds was performed to determine target affinity, as measured by Time-Resolved Fluorescence Resonance Energy Transfer (TR FRET).

[1] = system: peripheral blood immune cells and platelets; assay: Peripheral blood lymphocytes and platelets in (NZB×NZW)F1 mice, Cell Dyn hematology analyzer; type: in vivo
[2] = system: peripheral blood immune cells; assay: Peripheral blood lymphocytes in C57BL/6 mice, Cell Dyn hematology analyzer; type: in vivo; conditions: for inhibition in vivo at 100 mg/kg: Mus musculus, Lymphocyte
Experimental: The effect of the Bcl-2 selective/Bcl-XL sparing compounds on peripheral blood immune cells was also evaluated in C57BL/6 mice. Mice were treated four days with individual compounds (100 mg/kg, orally every day) and cell numbers were measured with a Cell Dyn hematology analyzer.

Bcl-XL = Bcl-XL (Homo sapiens, UniProt Q07817); assay: TR FRET competitive binding affinity, Bcl-XL; conditions: read-out: Target Affinity TR FRET, Bcl-XL
Chain of Bcl-XL (Q07817 whole entry): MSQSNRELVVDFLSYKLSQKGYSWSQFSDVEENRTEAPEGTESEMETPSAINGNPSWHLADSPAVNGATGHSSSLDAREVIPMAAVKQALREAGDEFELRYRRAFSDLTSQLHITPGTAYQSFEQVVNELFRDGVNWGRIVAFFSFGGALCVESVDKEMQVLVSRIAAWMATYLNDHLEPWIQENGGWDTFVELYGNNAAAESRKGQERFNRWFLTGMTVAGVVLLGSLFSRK
Experimental: as §1

Bcl-2 = Bcl-2 (Homo sapiens, UniProt P10415); assay: TR FRET competitive binding affinity, Bcl-2; conditions: read-out: Target Affinity TR FRET, Bcl-2
Chain of Bcl-2 (P10415 whole entry): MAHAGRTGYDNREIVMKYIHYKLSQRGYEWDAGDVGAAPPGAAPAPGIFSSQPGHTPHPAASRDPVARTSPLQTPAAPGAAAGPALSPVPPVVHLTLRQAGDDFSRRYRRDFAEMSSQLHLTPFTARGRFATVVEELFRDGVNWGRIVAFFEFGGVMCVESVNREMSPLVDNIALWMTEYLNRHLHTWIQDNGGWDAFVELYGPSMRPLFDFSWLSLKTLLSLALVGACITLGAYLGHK
Experimental: as §1

Mcl-1 = Mcl-1 (Homo sapiens, UniProt Q07820); assay: TR FRET competitive binding affinity, Mcl-1; conditions: read-out: Target Affinity TR FRET, Mcl-1
Chain of Mcl-1 (Q07820 whole entry): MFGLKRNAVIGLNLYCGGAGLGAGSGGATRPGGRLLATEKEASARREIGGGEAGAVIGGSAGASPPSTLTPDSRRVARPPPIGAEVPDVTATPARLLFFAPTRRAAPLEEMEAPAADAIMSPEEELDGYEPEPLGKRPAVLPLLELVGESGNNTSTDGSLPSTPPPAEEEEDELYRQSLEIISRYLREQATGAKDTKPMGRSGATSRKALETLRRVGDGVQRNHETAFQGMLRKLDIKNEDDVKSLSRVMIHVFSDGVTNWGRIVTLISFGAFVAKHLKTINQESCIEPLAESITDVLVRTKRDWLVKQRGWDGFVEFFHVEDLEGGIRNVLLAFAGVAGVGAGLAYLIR
Experimental: as §1

[3] = (NZB×NZW)F1 mice, four days, orally every day
[4] = 24 h, 1 oral dose of 100 mg/kg, read-out: Day 1 % Reduction vs. Vehicle
[5] = 96 h, 4 oral doses of 100 mg/kg, read-out: Day 4 % Reduction vs. Vehicle
[6] = 30 and 100 mg/kg intraperitoneal every day, four days

Row | Structure (SMILES) | EC50 (FL5.12-Bcl-2 cells) [nM] | EC50 (H146 cells) [nM] | EC50 (FL5.12-Bcl-XL cells) [nM] | EC50 (RS4;11 cells) [nM] | Ki (Bcl-w) [nM] | lymphocytes in peripheral blood [1, 3] | platelet counts [1, 3] | Day 1 Lymphocytes ([2]; 1 oral dose of 100 mg/kg) | Day 4 lymphocytes ([2]; 4 oral doses of 100 mg/kg) | inhibition in vivo at 100 mg/kg [2, 4] [%] | inhibition in vivo at 100 mg/kg [2, 5] [%] | Ki (Bcl-XL) [nM] | Ki (Bcl-2) [nM] | Ki (Mcl-1) [nM] | lymphocyte reduction ([1]; 30 mg/kg intraperitoneal every day, four days) [%] | CD4+ T cells, CD8+ T cells and CD19+ B cells ([1]; 100 mg/kg and 300 mg/kg) | lymphocyte reduction ([1]; 100 mg/kg intraperitoneal every day, four days) [%] | lymphocytes vs phosal vehicle control [1, 6] | platelet counts [1, 6]
1 | CC1(C)CCC(c2ccc(Cl)cc2)=C(CN2CCN(c3ccc(C(=O)NS(=O)(=O)c4ccc(N[C@H](CCN5CCOCC5)CSc5ccccc5)c(S(=O)(=O)C(F)(F)F)c4)cc3)CC2)C1 [Compound 2, N-(4-(4-((2-(4-chlorophenyl)-5,5-dimethyl-1-cyclohex-1-en-1-yl)methyl)piperazin-1-yl)benzoyl)-4-(((1R)-3-(morpholin-4-yl)-1-((phenylsulfanyl)methyl)propyl)amino)-3-((trifluoromethyl)sulfonyl)benzenesulfonamide, reference compound] | 20 | 75 | 13 | 110 | 7 | decrease in lymphocytes | significant decrease in platelet counts | – | – | – | – | – | – | – | – | – | – | – | –
2 | CC1(C)CCC(CN2CCN(c3ccc(C(=O)NS(=O)(=O)c4ccc(NCC5CCOCC5)c([N+](=O)[O-])c4)c(Oc4ccc5[nH]ccc5c4)c3)CC2)=C(c2ccc(Cl)cc2)C1 [Compound 3, 4-(4-{[2-(4-chlorophenyl)-4,4-dimethylcyclohex-1-en-1-yl]methyl}piperazin-1-yl)-2-(1H-indol-5-yloxy)-N-({3-nitro-4-[(tetrahydro-2H-pyran-4-ylmethyl)amino]phenyl}sulfonyl)benzamide] | 12 | > 5000 | 1060 | 41 | – | – | – | 2.3 ×10^6 | 1.34 ×10^6 | 63 | 79 | 151 | 0.119 | 111 | 47 | statistically significant decrease | 66 | dose dependent decrease in lymphocytes | without significantly affecting platelet counts
3 | CC1(C)CCC(CN2CCN(c3ccc(C(=O)NS(=O)(=O)c4cnc(OC[C@H]5CC[C@H](O)CC5)c(Cl)c4)c(Oc4cccc5[nH]ncc45)c3)CC2)=C(c2ccc(Cl)cc2)C1 [Compound 6, Trans-N-({5-chloro-6-[(4-hydroxycyclohexyl)methoxy]pyridin-3-yl}sulfonyl)-4-(4-{[2-(4-chlorophenyl)-4,4-dimethylcyclohex-1-en-1-yl]methyl}piperazin-1-yl)-2-(1H-indazol-4-yloxy)benzamide] | – | 3660 | – | 23 | – | – | – | 1.91 ×10^6 | 0.98 ×10^6 | 69 | 85 | 27 | < 0.01 | > 224 | – | – | – | – | –
4 | CC1(C)CCC(CN2CCN(c3ccc(C(=O)NS(=O)(=O)c4ccc(NC[C@H]5CC[C@@](C)(O)CC5)c([N+](=O)[O-])c4)c(Oc4cnc5[nH]ccc5c4)c3)CC2)=C(c2ccc(Cl)cc2)C1 [Compound 8, 4-(4-{[2-(4-chlorophenyl)-4,4-dimethylcyclohex-1-en-1-yl]methyl}piperazin-1-yl)-N-[(4-{[(cis-4-hydroxy-4-methylcyclohexyl)methyl]amino}-3-nitrophenyl)sulfonyl]-2-(1H-pyrrolo[2,3-b]pyridin-5-yloxy)benzamide] | – | 3340 | – | 4 | 405 | – | – | 0.92 ×10^6 | 1.02 ×10^6 | 85 | 84 | 16 | – | > 440 | – | – | – | – | –
5 | CC1(C)CCC(CN2CCN(c3ccc(C(=O)NS(=O)(=O)c4ccc(NC[C@H]5CC[C@](C)(O)CC5)c([N+](=O)[O-])c4)c(Oc4cnc5[nH]ccc5c4)c3)CC2)=C(c2ccc(Cl)cc2)C1 [Compound 9, 4-(4-{[2-(4-chlorophenyl)-4,4-dimethylcyclohex-1-en-1-yl]methyl}piperazin-1-yl)-N-[(4-{[(trans-4-hydroxy-4-methylcyclohexyl)methyl]amino}-3-nitrophenyl)sulfonyl]-2-(1H-pyrrolo[2,3-b]pyridin-5-yloxy)benzamide] | – | 3760 | – | 2.5 | 227 | – | – | 0.75 ×10^6 | 0.88 ×10^6 | 88 | 86 | 16 | – | > 440 | – | – | – | – | –
6 | CC1(C)CCC(CN2CCN(c3ccc(C(=O)NS(=O)(=O)c4cnc(OCC5(F)CCN(C6COC6)CC5)c(Cl)c4)c(Oc4cnc5[nH]ccc5c4)c3)CC2)=C(c2ccc(Cl)cc2)C1 [Compound 13, N-[(5-chloro-6-{[4-fluoro-1-(oxetan-3-yl)piperidin-4-yl]methoxy}pyridin-3-yl)sulfonyl]-4-(4-{[2-(4-chlorophenyl)-4,4-dimethylcyclohex-1-en-1-yl]methyl}piperazin-1-yl)-2-(1H-pyrrolo[2,3-b]pyridin-5-yloxy)benzamide] | – | 3160 | – | 7 | 167 | – | – | 2.32 ×10^6 | 2.61 ×10^6 | 64 | 70 | 9 | – | > 440 | – | – | – | – | –

From patent US9872861B2, “Methods of treatment using selective Bcl-2 inhibitors” (AbbVie Inc., priority 2010, dated 2018)
